In patent US4328202A, “Ionic 5-C-substituted 2,4,6-triiodoisophthalic acid derivatives” (Schering, A.G., priority 1980, dated 1982):

Legend:
Rat [1] = assay: Neural compatibility after intracerebral injection in rats (24 h observation; ED50 = toxic effects in 50% of the animals); assay type: in vivo; conditions: intracerebrally, meglumine salt in water, probit analysis
Procedure: (§1) Table I presents a comparison of the conventional contrast media iothalamic acid (E) and diatrizoic acid (F) with 5-Carbamoyl-3-N-methylcarbamoyl-2,4,6-triiodobenzoic acid (D) of this invention, in terms of neural compatibility after intracerebral or intracisternal administration, as well as their general compatibility.
(§2) The compounds are administered, as meglumine salts dissolved in water, to 10 rats each in varying doses. After intracerebral and intracisternal injection, the animals are observed for 24 hours; the ED50 is denoted as the dose causing toxic effects (strong behavioral anomalies and disturbances in motor coordination, convulsions, or death) in 50% of the animals. After intravenous injection, the observation time was 7 days. ED50 and LD50 were calculated by probit analysis.

Rat [2] = assay: Neural compatibility after intracisternal injection in rats (24 h observation; ED50 = toxic effects in 50% of the animals); assay type: in vivo; conditions: intracisternally, meglumine salt in water, probit analysis
Procedure: as §1, §2

Rat [3] = assay: General compatibility after intravenous injection in rats (7 days observation); assay type: in vivo; conditions: intravenously, meglumine salt in water, probit analysis
Procedure: as §1, §2

Iodine content of acid = assay type: physicochemical; conditions: of the free acid

## CNC(=O)c1c(I)c(C(N)=O)c(I)c(C(=O)O)c1I [D, 5-Carbamoyl-3-N-methylcarbamoyl-2,4,6-triiodobenzoic acid]
Rat [1]
  ED50 (strong behavioral anomalies, disturbances in motor coordination, convulsions, or death): 42 mg I/kg
  LD50: 66 mg I/kg
Rat [2]
  ED50 (strong behavioral anomalies, disturbances in motor coordination, convulsions, or death): 13.2 mg I/kg
  LD50: 65 mg I/kg
Rat [3]
  LD50: 8.7 g I/kg
Iodine content of acid
  Iodine content of acid: 63.5%

## CNC(=O)c1c(I)c(NC(C)=O)c(I)c(C(=O)O)c1I [E, iothalamic acid]
Rat [1]
  ED50 (strong behavioral anomalies, disturbances in motor coordination, convulsions, or death): 36 mg I/kg
  LD50: 52 mg I/kg
Rat [2]
  ED50 (strong behavioral anomalies, disturbances in motor coordination, convulsions, or death): 10.6 mg I/kg
  LD50: 58 mg I/kg
Rat [3]
  LD50: 7.4 g I/kg
Iodine content of acid
  Iodine content of acid: 62.1%

## CC(=O)Nc1c(I)c(NC(C)=O)c(I)c(C(=O)O)c1I [F, diatrizoic acid]
Rat [1]
  ED50 (strong behavioral anomalies, disturbances in motor coordination, convulsions, or death): 12 mg I/kg
Rat [2]
  ED50 (strong behavioral anomalies, disturbances in motor coordination, convulsions, or death): 3.0 mg I/kg
Rat [3]
  LD50: 7.3 g I/kg
Iodine content of acid
  Iodine content of acid: 62.1%
